Measurements from patent publication US4288597A, “1,2-Diacylamino-1,2-di(4-pyridyl)ethanes and process for producing thereof” (Laboratorios Made, S.A., priority 1979, dated 1981).

Key:
[1] = Analgesic effect by intraperitoneal route (Siegmund technique modified by Koster, 1% acetic acid irritant); assay type: in vivo; conditions: products 1 mg/kg, reference 25 mg/kg, 30 minutes after administration, dextropropoxyphene = 1
Method: There is a series of 19 products, with analgesic activity, the effects whereof were tested using dextropropoxyphene as a reference drug.
(§1) The object of the studies carried out on all the products was to calculate the acute toxicity, expressed in the form of lethal dose 50, and to evaluate the analgesic effect by administering the drugs orally and intraperitoneally.
1. ACTIVITY BY INTRAPERITONEAL ROUTE
(§2) The analgesic effect was evaluated according to the technique of Siegmund et al. (Proc. Soc. Exp. Biol. Med. 95, 729, 1957) modified by Koster et al. (Fed. Proc. 18, 412, 1957), a chemical analgesia test which uses 1% acetic acid as an irritant. The drugs under study were administered at the dose of 1 mg/kg and the reference drug at 25 mg/kg. The evaluation was made 30 minutes after the administrations. The results are given in Table B-1, expressing the results in the form of relative potency (F), giving dextropropoxyphene value 1. [formula]

[2] = Acute toxicity, lethal dose 50 (Litchfield-Wilcoxon), intraperitoneal; conditions: mouse, in vivo, ip, mice, deaths recorded three days after administration
Method: as §1
Tests were carried out on I.C.R. Swiss albino mice of both sexes weighing between 20 and 35 grams. The products were administered intraperitoneally,recording the number of dead animals three days after administration of the drugs. The statistical method used for the calculation of lethal dose 50 was the Litchfield-Wilcoxon method.

[3] = Analgesic effect by oral route (Siegmund technique modified by Koster, 1% acetic acid irritant); assay type: in vivo; conditions: products 5 mg/kg, dextropropoxyphene = 1
Method: as §1, §2
2. ACTIVITY BY ORAL ROUTE
The foregoing procedure was used, with the difference that the dose of the products under study was 5 mg/kg.

Row | SMILES | Analgesic effect by intraperitoneal route, relative potency F [1] | LD50 at 72 h [2] | Analgesic effect by oral route, relative potency F [3]
1 | Cc1ccccc1C(=O)NC(c1ccncc1)C(NC(=O)c1ccccc1C)c1ccncc1 (stereo not shown) [Example 6] | 1.09 | > 1600 mg/kg | 1.67
2 | CC(C)(C)c1ccc(C(=O)NC(c2ccncc2)C(NC(=O)c2ccc(C(C)(C)C)cc2)c2ccncc2)cc1 (stereo not shown) [Example 17] | 1.11 | > 1600 mg/kg | 1.17
3 | O=C(Cc1ccccc1)NC(c1ccncc1)C(NC(=O)Cc1ccccc1)c1ccncc1 (stereo not shown) [Example 18] | 0.96 | 1540 mg/kg | 2.13
4 | Cc1ccc(C(=O)NC(c2ccncc2)C(NC(=O)c2ccc(C)cc2)c2ccncc2)cc1 (stereo not shown) [Example 4] | 1.04 | > 1660 mg/kg | 1.11
5 | O=C(NC(c1ccncc1)C(NC(=O)c1cccc(Cl)c1)c1ccncc1)c1cccc(Cl)c1 (stereo not shown) [Example 9] | 1.08 | > 1300 mg/kg | 1.05
6 | CCC(=O)O[C@](Cc1ccccc1)(c1ccccc1)[C@H](C)CN(C)C [Dextropropoxyphene, dextropropoxyphene, reference compound] |  | 140 mg/kg | 
7 | CC(=O)NC(c1ccncc1)C(NC(C)=O)c1ccncc1 (stereo not shown) [Example 1] | 1.01 | 1120 mg/kg | 0.85
8 | O=C(NC(c1ccncc1)C(NC(=O)c1ccc([N+](=O)[O-])cc1)c1ccncc1)c1ccc([N+](=O)[O-])cc1 (stereo not shown) [Example 16] | 1.38 | > 1600 mg/kg | 1.25
9 | O=C(NC(c1ccncc1)C(NC(=O)c1ccc(Cl)cc1)c1ccncc1)c1ccc(Cl)cc1 (stereo not shown) [Example 8] | 1.58 | > 1600 mg/kg | 1.29
10 | Cc1cccc(C(=O)NC(c2ccncc2)C(NC(=O)c2cccc(C)c2)c2ccncc2)c1 (stereo not shown) [Example 5] | 1.85 | > 1400 mg/kg | 1.64
11 | O=C(NC(c1ccncc1)C(NC(=O)c1ccc(F)cc1)c1ccncc1)c1ccc(F)cc1 (stereo not shown) [Example 12] | 1.17 | 1110 mg/kg | 0.81
12 | COc1ccc(C(=O)NC(c2ccncc2)C(NC(=O)c2ccc(OC)cc2)c2ccncc2)cc1 (stereo not shown) [Example 14] | 1.09 | > 1600 mg/kg | 1.23
13 | Cc1cc(C)cc(C(=O)NC(c2ccncc2)C(NC(=O)c2cc(C)cc(C)c2)c2ccncc2)c1 (stereo not shown) [Example 7] | 1.53 | > 1600 mg/kg | 1.17
14 | CCCC(CCC)C(=O)NC(c1ccncc1)C(NC(=O)C(CCC)CCC)c1ccncc1 (stereo not shown) [Example 2] | 1.43 | > 1600 mg/kg | 0.95
15 | O=C(NC(c1ccncc1)C(NC(=O)c1ccccc1)c1ccncc1)c1ccccc1 (stereo not shown) [Example 3] | 1.21 | > 1300 mg/kg | 1.35
16 | O=C(NC(c1ccncc1)C(NC(=O)c1ccc(C(F)(F)F)cc1)c1ccncc1)c1ccc(C(F)(F)F)cc1 (stereo not shown) [Example 13] | 1.38 | > 1200 mg/kg | 1.19
17 | O=C(NC(c1ccncc1)C(NC(=O)c1ccccc1Cl)c1ccncc1)c1ccccc1Cl (stereo not shown) [Example 10] | 1.37 | 1060 mg/kg | 1.34
18 | CS(=O)(=O)c1ccc(C(=O)NC(c2ccncc2)C(NC(=O)c2ccc(S(C)(=O)=O)cc2)c2ccncc2)cc1 (stereo not shown) [Example 15] | 1.43 | > 2000 mg/kg | 1.05
19 | O=C(NC(c1ccncc1)C(NC(=O)c1cc(Cl)cc(Cl)c1)c1ccncc1)c1cc(Cl)cc(Cl)c1 (stereo not shown) [Example 11] | 0.84 | > 1200 mg/kg | 1.22
20 | O=C(NC(c1ccncc1)C(NC(=O)c1ccc(-c2ccccc2)cc1)c1ccncc1)c1ccc(-c2ccccc2)cc1 (stereo not shown) [Example 19] | 1.08 | > 1600 mg/kg | 1.13
